Results taken from patent US9695119B2, “Methionine analogs and methods of using same” (Bioxiness Pharmaceuticals, Inc., priority 2008, dated 2017).

Columns and labels:
Format in all cases: cell-based
Ps. sturtzeri = assay: Broad spectrum bacterial growth inhibition, 96-well plate, M9 media
Experimental: (§1) Table 2 and FIG. 2 summarizes a series of studies, which were performed to test eradication of bacterial growth using various species (representative strains of gram positive and gram negative microorganisms commonly associated with wound infection). A 96-well plate format was used to culture different bacteria in M9 minimal media supplemented with glucose (M9) or same media supplemented with a range of concentrations of various analogues (Methionine, I-AA and I-AB). Experiments were carried out in duplicate.

S. epidermids = assay: as above
Experimental: as §1

S. aureus = assay: as above
Experimental: as §1

E. coli (DH5-α) = assay: Growth inhibition of E. coli by methionine analogs, 96-well plate, OD 550 nm over time; settings: for Absorbance: 12.5 mM, OD 550 nm
Description: Comparative Minimum Bactericidal Concentration (MBC) results provide estimates of the susceptibility of various test articles against test organisms. A modification of the […] (NCCL) Standardized Protocol “Methods for dilution antimicrobial susceptibility tests for bacteria that grow aerobically” was used in these studies. Sterile Phosphate Buffer Saline (PBS) at pH 7.0 (vehicle) was used as the diluent. Use of such diluent allows for the determination of the intrinsic activity of our test articles in the absence of any interfering molecules. Specifically, each test article was diluted using 2-fold serial dilution in 96-well plate to give a range of concentrations from approximately 50 mM to 0.05 mM in a final volume of 0.1 mL. Each dilution was inoculated with 5×10^5 CFU/mL test bacteria. The initial optical density as absorbance of each well was read at OD 550 nm using ThermoMax plate reader. […] At various time intervals post-treatment, OD reading at 550 nm was recorded at various time intervals. FIG. 1A and Table 1 show time dependent growth inhibition capability of analogs on E. coli at 12.5 mM. For FIGS. 1A and 1B, the 96-well plate format was used to culture E. coli (DH5-α) cells in M9 minimal media supplemented with glucose (M9) or same media supplemented with a range of concentrations of various analogs. Experiments were carried out in duplicate.

For `CSCC[C@H](NC(=O)CN)C(=O)NO.Cl` [I-AB, (S)-2-(2-aminoacetamido)-N-hydroxy-4-(methylthio)butanamide hydrochloride], which “Broad Spectrum Bacterial Growth Inhibition Data, Ps. sturtzeri” value (Ps. sturtzeri; Conc. 0.0, well 4, M9 media) is on record?
Its value is 0.5.

And the “Broad Spectrum Bacterial Growth Inhibition Data, Ps. sturtzeri” value (Ps. sturtzeri; Conc. 0.1, well 5, M9 media)?
The value was 0.5.

What about the “Broad Spectrum Bacterial Growth Inhibition Data, Ps. sturtzeri” value (Ps. sturtzeri; Conc. 0.2, well 6, M9 media) of the same compound?
The value was 0.3.

And the “Broad Spectrum Bacterial Growth Inhibition Data, Ps. sturtzeri” value (Ps. sturtzeri; Conc. 0.4, well 7, M9 media)?
Its value is 0.3.

What about the “Broad Spectrum Bacterial Growth Inhibition Data, Ps. sturtzeri” value (Ps. sturtzeri; Conc. 0.8, well 8, M9 media) of the same compound?
The value was 0.2.

And the “Broad Spectrum Bacterial Growth Inhibition Data, Ps. sturtzeri” value (Ps. sturtzeri; Conc. 1.6, well 9, M9 media)?
Its value is 0.2.

What about the “Broad Spectrum Bacterial Growth Inhibition Data, Ps. sturtzeri” value (Ps. sturtzeri; Conc. 3.1, well 10, M9 media) of the same compound?
Its value is 0.2.

And the “Broad Spectrum Bacterial Growth Inhibition Data, Ps. sturtzeri” value (Ps. sturtzeri; Conc. 6.3, well 11, M9 media)?
The value was 0.2.

And the “Broad Spectrum Bacterial Growth Inhibition Data, Ps. sturtzeri” value (Ps. sturtzeri; Conc. 12.5, well 12, M9 media)?
Its value is 0.2.

What about the “Broad Spectrum Bacterial Growth Inhibition Data, S. epidermids” value (S. epidermids; Conc. 0.0, well 4, M9 media) of the same compound?
Its value is 0.7.

What about the “Broad Spectrum Bacterial Growth Inhibition Data, S. epidermids” value (S. epidermids; Conc. 0.1, well 5, M9 media) of the same compound?
Its value is 0.7.

And the “Broad Spectrum Bacterial Growth Inhibition Data, S. epidermids” value (S. epidermids; Conc. 0.2, well 6, M9 media)?
The value was 0.6.

And the “Broad Spectrum Bacterial Growth Inhibition Data, S. epidermids” value (S. epidermids; Conc. 0.4, well 7, M9 media)?
The value was 0.3.

And the “Broad Spectrum Bacterial Growth Inhibition Data, S. epidermids” value (S. epidermids; Conc. 0.8, well 8, M9 media)?
The value was 0.2.

What about the “Broad Spectrum Bacterial Growth Inhibition Data, S. epidermids” value (S. epidermids; Conc. 1.6, well 9, M9 media) of the same compound?
Its value is 0.2.

What about the “Broad Spectrum Bacterial Growth Inhibition Data, S. epidermids” value (S. epidermids; Conc. 3.1, well 10, M9 media) of the same compound?
Its value is 0.1.

What about the “Broad Spectrum Bacterial Growth Inhibition Data, S. epidermids” value (S. epidermids; Conc. 6.3, well 11, M9 media) of the same compound?
Its value is 0.1.

What about the “Broad Spectrum Bacterial Growth Inhibition Data, S. epidermids” value (S. epidermids; Conc. 12.5, well 12, M9 media) of the same compound?
Its value is 0.1.

And the “Broad Spectrum Bacterial Growth Inhibition Data, S. aureus” value (S. aureus; Conc. 0.0, well 4, M9 media)?
The value was 0.6.

And the “Broad Spectrum Bacterial Growth Inhibition Data, S. aureus” value (S. aureus; Conc. 0.1, well 5, M9 media)?
Its value is 0.6.

What about the “Broad Spectrum Bacterial Growth Inhibition Data, S. aureus” value (S. aureus; Conc. 0.2, well 6, M9 media) of the same compound?
The value was 0.5.

What about the “Broad Spectrum Bacterial Growth Inhibition Data, S. aureus” value (S. aureus; Conc. 0.4, well 7, M9 media) of the same compound?
The value was 0.5.

What about the “Broad Spectrum Bacterial Growth Inhibition Data, S. aureus” value (S. aureus; Conc. 0.8, well 8, M9 media) of the same compound?
The value was 0.5.

What about the “Broad Spectrum Bacterial Growth Inhibition Data, S. aureus” value (S. aureus; Conc. 1.6, well 9, M9 media) of the same compound?
The value was 0.4.

What about the “Broad Spectrum Bacterial Growth Inhibition Data, S. aureus” value (S. aureus; Conc. 3.1, well 10, M9 media) of the same compound?
Its value is 0.2.

And the “Broad Spectrum Bacterial Growth Inhibition Data, S. aureus” value (S. aureus; Conc. 6.3, well 11, M9 media)?
Its value is 0.1.

And the “Broad Spectrum Bacterial Growth Inhibition Data, S. aureus” value (S. aureus; Conc. 12.5, well 12, M9 media)?
The value was 0.1.

What about the Absorbance (E. coli (DH5-α); E. coli, well 12, time 0 hrs) of the same compound?
Its Absorbance is 0.085.

What about the Absorbance (E. coli (DH5-α); E. coli, well 12, time 1 hrs) of the same compound?
Its Absorbance is 0.095.

And the Absorbance (E. coli (DH5-α); E. coli, well 12, time 2 hrs)?
The Absorbance was 0.111.

And the Absorbance (E. coli (DH5-α); E. coli, well 12, time 3 hrs)?
The Absorbance was 0.104.

And the Absorbance (E. coli (DH5-α); E. coli, well 12, time 3.75 hrs)?
The Absorbance was 0.090.

What about the Absorbance (E. coli (DH5-α); E. coli, well 12, time 5 hrs) of the same compound?
Its Absorbance is 0.094.

What about the Absorbance (E. coli (DH5-α); E. coli, well 12, time 6.5 hrs) of the same compound?
Its Absorbance is 0.090.

And the Absorbance (E. coli (DH5-α); E. coli, well 12, time 7.25 hrs)?
The Absorbance was 0.089.

What about the Absorbance (E. coli (DH5-α); E. coli, well 12, time 23 hrs) of the same compound?
The Absorbance was 0.091.

What about the “Concentration dependence of bacterial growth inhibition” value (E. coli (DH5-α); E. coli, spot inoculated agar plate (FIG. 1B)) of the same compound?
The value was “concentration-dependent”.

What about the “E. coli growth inhibition” value (E. coli (DH5-α); as compared to M9 and other analogs) of the same compound?
The value was “significantly inhibited”.
